# Literature values, collected in patent publication US20100227930A1 (priority 2009, published 2010).
# Assays:
# [1] = species not given
# [2] = compared with the 2:1:1 blend of three quaternary ammonium compounds
# fish = conditions: in vivo
# algae = conditions: duration not given
# rainbow trout = conditions: in vivo
smiles,measurement,setting,value
COC(C)COC(C)CO (stereo not drawn) [Dipropylene glycol methyl ether],aquatic acute toxicity,[1],> 100 mg/L
CCCCCCCCCC[N+](C)(C)CCCCCCCCCC.[Cl-] [didecyl dimethyl ammonium chloride],water solubility,[2],poorer water solubility
"O=C([O-])CC(NC(CC(=O)[O-])C(=O)[O-])C(=O)[O-].[Na+].[Na+].[Na+].[Na+] (stereo not drawn) [IDS, iminodisuccinate tetrasodium salt]",acute aquatic toxicity fish,fish,82.6 mg/L
same,EC0 Daphnia Magna,Daphnia magna; in vivo,84 mg/L
same,DL50 oral rat acute toxicity,,"over 2,000 mg/kg"
same,EC50 Algae,algae,94.5 µg/mL
"O=C([O-])CCC(C(=O)[O-])N(CC(=O)[O-])CC(=O)[O-].[Na+].[Na+].[Na+].[Na+] (stereo not drawn) [Dissolvine GL, Glutamic acid, N,N Diacetic acid and their Tetrasodium salts]",EC50 Daphnia Magna,Daphnia magna; duration not given,> 100 µg/mL
same,EC50 fish (rainbow trout),rainbow trout,> 100 µg/mL
same,EC50 Algae,algae,> 100 µg/mL
